From doi:10.1101/2025.08.13.670122v1 (bioRxiv, 2025)
Peptide text beside a SMILES is read from it.

Tests used:
Plasma stability = assay type: in vitro ADME; conditions: male Sprague-Dawley rat plasma, 6 μL of 1 mM compound (10% DMSO) in 27 μL plasma, 37°C, 0-24 h, UPLC-MS, one-phase decay, mean ± SEM of at least three experiments, read-out: Plasmatic half-life t1/2 (±SEM)
Description: The degradation was quenched by adding 140 μL of 1% formic acid in an acetonitrile-ethanol (1:1) solution containing 0.25 mM of N,N-dimethylbenzamide (used as an internal standard). This mixture was initially transferred to an Impact Protein Precipitation filter plate (Phenomenex, California), the filtrates from which were subsequently collected in a second 96-well UPLC plate. Both plates were centrifuged at 500 g for 10 min while maintaining a temperature of 4°C. The filtrates were then diluted with 30 μL of distilled water and processed for analysis using an Acquity UPLC-MS system class H (using an Acquity UPLC protein BEH C18 column that measured 2.1 mm × 50 mm and had 1.7 μm particles with pores 130 Å in width). The peptide half-life, derived from the degradation curve, was calculated using the exponential one-phase decay function in GraphPad Prism 9. Degradation was estimated by comparing the mass spectrum at each point with those at the zero-minute mark. The data were presented as a mean ± SEM of at least three unique experiments, each performed in singlicate.

AT1R [1] = target: T1, AT1R (Homo sapiens, UniProt P30556); assay: β-arrestin2 recruitment BRET (β-arrestin2-RLucII/rGFP-CAAX) in HEK293 cells expressing AT1R; assay type: cell-based; set-up: expressed in transfected cells; host or cells: HEK293 cells, transient PEI transfection; conditions: for Emax βarr2 (% AngII): HEK293/AT1R, β-arrestin2 BRET, response of the ligand at 10 μM, normalised to AngII; for EC50: HEK293 cells transiently expressing AT1R, β-arrestin2-RLucII/rGFP-CAAX BRET, read 10 min after ligand, mean ± SEM of at least three to five independent experiments, SEM, read-out: EC50 βarr2
T1 sequence (P30556 1-359): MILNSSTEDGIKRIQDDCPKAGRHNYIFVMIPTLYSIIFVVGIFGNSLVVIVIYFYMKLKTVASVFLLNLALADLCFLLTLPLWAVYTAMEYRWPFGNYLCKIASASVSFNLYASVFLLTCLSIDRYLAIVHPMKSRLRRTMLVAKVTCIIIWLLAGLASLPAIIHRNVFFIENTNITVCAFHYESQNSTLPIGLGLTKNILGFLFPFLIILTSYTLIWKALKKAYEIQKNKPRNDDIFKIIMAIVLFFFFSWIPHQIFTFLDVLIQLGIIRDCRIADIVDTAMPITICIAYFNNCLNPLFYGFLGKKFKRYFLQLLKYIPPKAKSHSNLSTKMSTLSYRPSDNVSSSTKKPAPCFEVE
Excerpt: (§1) We utilized a clonal cell line HEK293, referred to hereafter as HEK293 cells, which has been previously described.[7],[8] As a gracious gift from A. Inoue (Tohoku University, Sendai, Miyagi, Japan), CRISPR Gαq/11 and Gα12/13 knockout cell lines (ΔGq/11 and ΔG12/13, respectively), were derived as previously explained.[48] In brief, a CRISPR-Cas9 system was used to target either GNAQ and GNA11 or GNA12 and GNA13 genes in HEK293T cells simultaneously to generate the Gαq/11 and Gα12/13 knockout cell lines. For the production of adenovirus, we utilized HEK293A cells. All cells were grown in DMEM supplemented with 10% FBS and Penicillin-Streptomycin-L-Glutamine (10000 IU penicillin, 10000 µg/mL Streptomycin, 200 mM L-Glutamine) at 37°C in T175 flasks under a 5% CO2 humidified chamber. Periodic testing was carried out for mycoplasma contamination (ABM™, Mycoplasma PCR Detection kit). For all biosensors used, cells underwent transfection with the PEI reagent, employing a PEI:DNA ratio of 3:1. For the Gαq biosensor, HEK293 cells were transfected with the plasmids coding for Gαq-RLucII (120 ng), Gβ1 (3000 ng), Gγ1-GFP10 (3000 ng), human AT1 (3000 ng) and Salmon sperm DNA (SSD) (880 ng). For the β-arrestin2 recruitment assay, HEK293 cells were transfected with the plasmids coding for 120 ng β-arrestin-2-RLucII, 3000 ng AT1, 3000 ng rGFP-CAAX, and 3880 ng SSD. For the measurement of PKC, HEK293 cells were transfected with 3000 ng AT1, 600 ng PKC-c1b, and 6400 ng SSD. […] 100 µL of the cell/DNA mixture was added to white 96-well plates and incubated at 37°C at 5% CO2 for 48 h. For the Rho assay, ΔG12/13 cells were seeded at a density of 9,000 cells per well in poly-ornithine-coated white 96-well plates and transfected the following day. In brief, 1 μg of total DNA in 100 μL of PBS was mixed with 100 μL of PBS containing 3 μL of 1 mg/mL PEI. For Rho signaling, 150 ng of AT1R DNA with 25 ng of PKN-RBD-RlucII [8], and 100 ng of rGFP-CAAX were used. Empty pcDNA was used to reach 1 µg of the total DNA amount in 100 μL of PBS. The DNA was then mixed with 100 μL of PBS containing 3 μL of 1 mg/mL PEI. After a 20-min incubation, the DNA/PEI complexes were dispensed into cells in 96-well plates (15 µL/well), and the experiment was carried out 48 h post-transfection.
(§2) On the day of the experiment, each well was washed with 80 µL of Tyrode’s buffer (140 mM NaCl, 2.7 mM KCl, 1 mM CaCl2, 12 mM NaHCO3, 5.6 mM D-glucose, 0.5 mM MgCl2, 0.37 mM NaH2PO4, 25 mM Hepes (pH 7.4)). This was followed by incubation for 1 h in Tyrode’s buffer at room temperature. For the Gαq, β-arrestin-2, and PKC biosensors used in HEK293 cells, coelenterazine 400A (at a final concentration of 5 μM) was added 10 min before stimulation. Cells were then stimulated with increasing doses of the indicated ligand, and BRET signals were measured using a Tristar2 (Berthold) microplate reader 10 min later. For the PKC and Rho biosensors in VSMCs, and the Rho biosensor in ΔG12/13 cells, cells were similarly stimulated with ligands for 1 min, 1 min 30 s, and 3 min, respectively, before BRET measurement. […] BRET signals were then measured using a Synergy2 (BioTek) microplate reader. The applied filter set was 410/80 nm and 515/30 nm, designed to detect the light emissions of RlucII (Renilla luciferase) (donor) and rGFP (acceptor), respectively.

AT1R [2] = target: T1, AT1R; assay: Gαq activation BRET (GABY sensor) in HEK293 cells expressing AT1R; assay type: cell-based; set-up: expressed in transfected cells; host or cells: HEK293 cells, transient PEI transfection; conditions: for Emax Gαq (% AngII): HEK293/AT1R, GABY BRET sensor, response of the ligand at 10 μM, normalised to AngII; for EC50: HEK293 cells transiently expressing human AT1R, Gαq-RlucII/Gβ1/Gγ1-GFP10 (GABY) BRET sensor, BRET read 10 min after ligand, mean ± SEM of at least three to five independent experiments
Excerpt: as §1, §2

| SMILES | half-life at 182 µM (Plasma stability) [min] | Emax βarr2 (% AngII) (AT1R [1]) | EC50 (AT1R [1]) [nM] | Emax Gαq (% AngII) (AT1R [2]) | EC50 (AT1R [2]; SEM) [nM] | EC50 (AT1R [2]) [nM] |
| --- | --- | --- | --- | --- | --- | --- |
| CC[C@H](C)[C@H](NC(=O)[C@H](Cc1ccc(O)cc1)NC(=O)[C@@H](NC(=O)[C@H](CCCNC(=N)N)NC(=O)[C@@H](N)CC(=O)O)C(C)C)C(=O)N[C@@H](Cc1c[nH]cn1)C(=O)N1CCC[C@H]1C(=O)N[C@H](C(=O)O)C(C)(C)C [compound 3] |  | 81 | 2.3 ± 0.4 | 19 | 0.36 ± 0.84 |  |
| CC[C@H](C)[C@H](NC(=O)[C@H](Cc1ccc(O)cc1)NC(=O)[C@@H](NC(=O)[C@H](CCCNC(=N)N)NC(=O)[C@@H](N)CC(=O)O)C(C)C)C(=O)N[C@@H](Cc1c[nH]cn1)C(=O)N1CCC[C@H]1C(=O)N[C@@H](CCC(N)=O)C(=O)O [compound 7] (H-DRVYIHPQ-OH; N-terminus assumed) |  | 56 | 158 ± 20 |  |  | > 10000 |
| CC[C@H](C)[C@H](NC(=O)[C@H](Cc1ccc(O)cc1)NC(=O)[C@@H](NC(=O)[C@H](CCCNC(=N)N)NC(=O)[C@@H](N)CC(=O)O)C(C)C)C(=O)N[C@@H](Cc1c[nH]cn1)C(=O)N1CCC[C@H]1C(=O)N[C@@H](Cc1cccc2ccccc12)C(=O)O [compound 8] |  | 101 | 2.1 ± 0.4 | 61 | 8.3 ± 5.1 |  |
| CC[C@H](C)[C@H](NC(=O)[C@H](Cc1ccc(O)cc1)NC(=O)[C@@H](NC(=O)[C@H](CCCNC(=N)N)NC(=O)[C@@H](N)CC(=O)O)C(C)C)C(=O)N[C@@H](Cc1c[nH]cn1)C(=O)N1CCC[C@H]1C(=O)N[C@@H](COCc1ccccc1)C(=O)O [compound 16] |  | 87 | 3 ± 0.5 | 26 | 2.3 ± 4 | > 10000 |
| CC[C@H](C)[C@H](NC(=O)[C@H](Cc1ccc(O)cc1)NC(=O)[C@@H](NC(=O)[C@H](CCCNC(=N)N)NC(=O)[C@@H](N)CC(=O)O)C(C)C)C(=O)N[C@@H](Cc1c[nH]cn1)C(=O)N1CCC[C@H]1C(=O)N[C@@H](Cc1c[nH]c2ccccc12)C(=O)O [compound 21] (H-DRVYIHPW-OH; N-terminus assumed) |  | 107 |  | 91 |  |  |

Other lines, results leading:

| half-life at 182 µM (Plasma stability) [min] | Emax βarr2 (% AngII) (AT1R [1]) | EC50 (AT1R [1]) [nM] | Emax Gαq (% AngII) (AT1R [2]) | EC50 (AT1R [2]; SEM) [nM] | EC50 (AT1R [2]) [nM] | SMILES |
| --- | --- | --- | --- | --- | --- | --- |
| 32 ± 3 |  |  |  |  |  | CC[C@H](C)[C@H](NC(=O)[C@H](Cc1ccc(O)cc1)NC(=O)[C@@H](NC(=O)[C@H](CCCNC(=N)N)NC(=O)[C@@H](N)CC(=O)O)C(C)C)C(=O)N[C@@H](Cc1c[nH]cn1)C(=O)N1CCC[C@H]1C(=O)N[C@@H](Cc1ccccc1Cl)C(=O)O [29a] |
|  | 105 | 5.2 ± 1 | 37 | 7.5 ± 6.3 |  | CC[C@H](C)[C@H](NC(=O)[C@H](Cc1ccc(O)cc1)NC(=O)[C@@H](NC(=O)[C@H](CCCNC(=N)N)NC(=O)[C@@H](N)CC(=O)O)C(C)C)C(=O)N[C@@H](Cc1c[nH]cn1)C(=O)N1CCC[C@H]1C(=O)N[C@@H](Cc1ccncc1)C(=O)O [compound 17] |
|  |  | 2.6 ± 0.8 |  | 4.2 ± 1.3 |  | CC[C@H](C)[C@H](NC(=O)[C@H](Cc1ccc(O)cc1)NC(=O)[C@@H](NC(=O)[C@H](CCCN=C(N)N)NC(=O)[C@@H](N)CC(=O)O)C(C)C)C(=O)N[C@@H](Cc1c[nH]cn1)C(=O)N1CCC[C@H]1C(=O)N[C@@H](Cc1ccc(O)cc1)C(=O)O [24c] (H-DRVYIHPY-OH) |
